Values quoted from earlier work as cited in article PMC13566764 (International Journal of Molecular Sciences, 2026).

Design: method as in https://pubchem.ncbi.nlm.nih.gov
Conditions: ref https://pubchem.ncbi.nlm.nih.gov

O=C1NC(=O)C(c2ccccc2)(c2ccccc2)N1 [Phenytoin, phenytoin]
pKa: 8.33
